In patent US12012417B2, “N-substituted tetrahydrothienopyridine derivatives and uses thereof” (NOVARTIS AG, priority 2018, dated 2024) one finds EC50 data, which are given here for nine molecules.

Structures can show the parent of a compound that is named as a salt.

Experiment [1] concerns Dengue 1 virus MY97-10245. Put plainly: High-content imaging cell-based flavivirus immunodetection (HCl-CFI) assay, Dengue 1. As to conditions: Dengue virus, A549, 48 h, read-out: Dengue 1 virus MY97-10245 in A549 using HCl [Inhibitor/IC50] Qualified AC50.
The test system of experiment [2] is Dengue 2 virus MY97-10340. The experiment in a line: High-content imaging cell-based flavivirus immunodetection (HCl-CFI) assay, Dengue 2. Particulars: Dengue virus, A549, 48 h, read-out: Dengue 2 virus MY97-10340 in A549 using HCl [Inhibitor/IC50] Qualified AC50, A549 cells, MOI 0.3, 48 h, viral E protein expression. As to the method:
High-Content Imaging Cell-Based Flavivirus Immunodetection (HCl-CFI) Assay
A549 cells (7×10^3 cells per well) in a 384-well plate were infected with the DENV-2 (MY97-10340) strain at an MOI of 0.3. The cells were then treated with 3-fold, 10-point serial dilutions of test compound. After 48 h, the cells were fixed with paraformadehyde, and the viral E protein detected with 4G2 antibody labeled with Dylight™ 488 (GenScript). Cell nuclei were stained with Draq5 (Pierce/Thermo), and images were taken on the Opera imaging system (Perkin Elmer). A dose-response curve was plotted to calculate the effective concentration of compound needed to reduce expression of E protein by 50% (EC50) using GraphPad Prism.
The resulted EC50 values are summarized in Table 1 below: ±≥1 μM; 1 μM>++≥0.1 μM; 0.1 μm>+++

The test system of experiment [3] is Dengue 3 virus MY05-34640-WT-C6/36. Put plainly: High-content imaging cell-based flavivirus immunodetection (HCl-CFI) assay, Dengue 3. Particulars: Dengue virus, A549, 48 h, read-out: Dengue 3 virus MY05-34640-WT-C6/36 in A549 using HCl [Inhibitor/IC50] Qualified AC50.
Experiment [4] relates to Dengue 4 virus MY01-22713. Put plainly: High-content imaging cell-based flavivirus immunodetection (HCl-CFI) assay, Dengue 4. As to conditions: Dengue virus, A549, 48 h, read-out: Dengue 4 virus MY01-22713 in A549 using HCl [Inhibitor/IC50] Qualified AC50, A549 cells, 48 h, viral E protein expression.

Turning to `CC1Cc2sc(NC(=O)Cc3ccc(S(N)(=O)=O)cc3)c(C#N)c2CN1C(C)c1ccccc1` (single isomer, unassigned) [Example 54, N-(3-cyano-6-methyl-5-(1-phenylethyl)-4,5,6,7-tetrahydrothieno[3,2-c]pyridin-2-yl)-2-(4-sulfamoylphenyl)acetamide], the EC50 in experiment [1] is 100 to 1000 nM; in experiment [2], below 100 nM; in experiment [3], below 100 nM; in experiment [4], below 100 nM.
For `N#Cc1c(NC(=O)Cc2ccc(S(N)(=O)=O)cc2)sc2c1CN(CC13CC(F)(C1)C3)CC2` [Example 1, N-(3-cyano-5-((3-fluorobicyclo[1.1.1]pentan-1-yl)methyl)-4,5,6,7-tetrahydrothieno[3,2-c]pyridin-2-yl)-2-(4-sulfamoylphenyl)acetamide], the EC50 in experiment [1] is above 1000 nM; in experiment [2], 100 to 1000 nM; in experiment [3], 100 to 1000 nM; in experiment [4], 100 to 1000 nM.
As for `N#Cc1c(NC(=O)Cc2ccc(S(N)(=O)=O)cc2)sc2c1CN(CC1CC(F)(F)C1)CC2` [Example 2, N-(3-cyano-5-((3,3-difluorocyclobutyl)methyl)-4,5,6,7-tetrahydrothieno[3,2-c]pyridin-2-yl)-2-(4-sulfamoylphenyl)acetamide], the EC50 is above 1000 nM in experiment [1], 100 to 1000 nM in experiment [2], 100 to 1000 nM in experiment [3] and 100 to 1000 nM in experiment [4].
As to `CC(C1CCCCC1)N1CCc2sc(NC(=O)Cc3ccc(S(N)(=O)=O)cc3)c(C#N)c2C1` (centres unmarked) [Example 3, N-(3-cyano-5-(1-cyclohexylethyl)-4,5,6,7-tetrahydrothieno[3,2-c]pyridin-2-yl)-2-(4-sulfamoylphenyl)acetamide], the EC50 in experiment [1] is 100 to 1000 nM; in experiment [2], below 100 nM; in experiment [3] it was below 100 nM; in experiment [4], below 100 nM.
Turning to `N#Cc1c(NC(=O)Cc2ccc(S(N)(=O)=O)cc2)sc2c1CN(CC1CCCC1)CC2` [Example 4, N-(3-cyano-5-(cyclopentylmethyl)-4,5,6,7-tetrahydrothieno[3,2-c]pyridin-2-yl)-2-(4-sulfamoylphenyl)acetamide], the EC50 in experiment [1] is 100 to 1000 nM; in experiment [2], below 100 nM; in experiment [3] it was 100 to 1000 nM; in experiment [4] it was below 100 nM.
As to `N#Cc1c(NC(=O)Cc2ccc(S(N)(=O)=O)cc2)sc2c1CN(Cc1cccc(F)c1)CC2` [Example 5, N-(3-cyano-5-(3-fluorobenzyl)-4,5,6,7-tetrahydrothieno[3,2-c]pyridin-2-yl)-2-(4-sulfamoylphenyl)acetamide], the EC50 in experiment [1] was 100 to 1000 nM; in experiment [2] it was below 100 nM; in experiment [3] it was below 100 nM; in experiment [4], below 100 nM.
`N#Cc1c(NC(=O)Cc2ccc(S(N)(=O)=O)cc2)sc2c1CN(CC1CCCCC1)CC2` [Example 6, N-(3-cyano-5-(cyclohexylmethyl)-4,5,6,7-tetrahydrothieno[3,2-c]pyridin-2-yl)-2-(4-sulfamoylphenyl)acetamide]: the EC50 in experiment [1] is 100 to 1000 nM; in experiment [2] it was below 100 nM; in experiment [3], below 100 nM; in experiment [4], below 100 nM.
As to `COc1cc(CC(=O)Nc2sc3c(c2C#N)CN(CC2CCCCC2)CC3)ccc1S(N)(=O)=O` [Example 7, N-(3-cyano-5-(cyclohexylmethyl)-4,5,6,7-tetrahydrothieno[3,2-c]pyridin-2-yl)-2-(3-methoxy-4-sulfamoylphenyl)acetamide], the EC50 in experiment [1], in experiment [2], in experiment [3] and in experiment [4] was below 100 nM in each case.
For the molecule `COC(=O)c1ccccc1CN1CCc2c(sc(NC(=O)Cc3ccc(S(N)(=O)=O)cc3)c2C#N)C1` [Example 91, Methyl-2-((3-cyano-2-(2-(4-sulfamoylphenyl)acetamido)-4,5-dihydrothieno[2,3-c]pyridin-6-(71-1)-yl)methyl)benzoate hydrochloride], the EC50 in experiment [2] is above 1000 nM; in experiment [3], above 1000 nM; in experiment [4], 100 to 1000 nM.
